The values below come from patent US9708314B2, “Heterocyclic amide compound” (NISSAN CHEMICAL INDUSTRIES, LTD., priority 2013, dated 2017).

Holding throughout (format): in vivo
One series has as its system Cyperus difformis. The series is described as follows: Test Example 3: herbicidal effect by application to foliage (Wagner pot, water depth 0.1-0.5 cm). The note with it: Nineteenth Table; application to foliage; application herbicide amount 320 g/ha. In short, it runs like this: (§1)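 Plants are raised 14 days from seed in flooded-surface Wagner pots at 25–30 °C, sprayed on stems and leaves with diluted emulsion at a predetermined rate, and rated three weeks on using a 0–5 herbicidal-ratio scale (5 ≥90%).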

In series [1] the test system is Echinochloa crus-galli var. crus-galli. The series is described as above. The note with it: Nineteenth Table; application to foliage; application herbicide amount 320 g/ha. The gist of the method:
as §1

In the next series the test system is Leptochloa chinensis. The description is as above. The note with it: Nineteenth Table; application to foliage; application herbicide amount 320 g/ha. In short, it runs like this: as §1
Another series relates to Abutilon theophrasti. Briefly: Test Example 4: herbicidal effect by application to foliage (diluvial soil, plastic box). The conditions noted are these: foliage application, 320 g/ha. In short, it runs like this: (§2)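 Seeds sown in sterilized diluvial soil, covered ~1.5 cm, grown 14 days in greenhouse at 25° C. to 30° C. Emulsion formulation diluted in water to set rate (g/ha) and sprayed onto stems and leaves. Effect scored visually 3 weeks later on 0–5 scale (5 = ≥90% herbicidal ratio, 0 = ≤5%).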

The test system of the next series is Alopecurus myosuroides. The series is described as above. The conditions noted are these: foliage application, 320 g/ha. In short, it runs like this: as §2
The subject of another series is Amaranthus retroflexus. Described as above. The conditions noted are these: foliage application, 320 g/ha. In short, it runs like this:
as §2

For another series, the system named is Apera spica-venti. The description is as above. The note with it: foliage application, 320 g/ha. The gist of the method: as §2
Another series relates to Avena fatua. The series is described as above. The conditions noted are these: foliage application, 320 g/ha. In short, it runs like this: as §2
Another series concerns Chenopodium album. The description is as above. The note with it: foliage application, 320 g/ha. In short, it runs like this:
as §2

The test system of another series is Digitaria ciliaris. The series is described as above. The conditions noted are these: foliage application, 320 g/ha. The gist of the method:
as §2

In series [2] the test system is Echinochloa crus-galli var. crus-galli. The series is described as above. The conditions noted are these: foliage application, 320 g/ha. The gist of the method: as §2
Another series relates to Galium spurium. The description is as above. The note with it: foliage application, 320 g/ha. The gist of the method:
as §2

A further series concerns Lolium multiflorum Lam. The series is described as above. The conditions noted are these: foliage application, 320 g/ha. In short, it runs like this: as §2
A further series deals with Setaria viridis. The description is as above. The note with it: foliage application, 320 g/ha. The gist of the method: as §2
In the next series the test system is Stellaria media. Described as above. The note with it: foliage application, 320 g/ha. In short, it runs like this: as §2
For a further series, the system named is Veronica persica. The series is described as above. The note with it: foliage application, 320 g/ha. The gist of the method: as §2
For series [3], the system named is Beta vulgaris ssp. vulgaris. The series is described as follows: Test Example 4: effect on crop by application to foliage (diluvial soil, plastic box). The conditions noted are these: foliage application, 320 g/ha. The gist of the method: as §2
A further series relates to Brassica campestris L. The series is described as above. The note with it: foliage application, 320 g/ha. In short, it runs like this: as §2
A further series deals with Glycine max. The series is described as above. The conditions noted are these: foliage application, 320 g/ha. The gist of the method: as §2
In a further series the test system is Triticum aestivum. Described as above. The note with it: foliage application, 320 g/ha. The gist of the method:
as §2

For the next series, the system named is Zea mays. Described as above. The note with it: foliage application, 320 g/ha. In short, it runs like this:
as §2

For series [4], the system named is directly sowed Oryza sativa. The description is as above. The conditions noted are these: foliage application, 320 g/ha. In short, it runs like this:
as §2

On to `COc1ccccc1-c1nnc2c(C(=O)Nc3nnnn3C)ccc(C(F)(F)F)n12` [2-045], for which the “E (herbicidal effect grade)” value with Cyperus difformis is reported as 5 (Herbicidal ratio of 90% or more (almost completely withered)). Further, the “H (herbicidal effect grade)” value in series [1] was 5 (Herbicidal ratio of 90% or more (almost completely withered)). Further, the “D (herbicidal effect grade)” value in the series with Leptochloa chinensis is 5 (Herbicidal ratio of 90% or more (almost completely withered)). In addition, in the series with Abutilon theophrasti, the “M (Abutilon theophrasti) herbicidal effect grade” value is 5 (Herbicidal ratio of 90% or more (almost completely withered)). For the same compound, the “J (Alopecurus myosuroides) herbicidal effect grade” value in the series with Alopecurus myosuroides is 1 (Herbicidal ratio of 5% or more and less than 20%). In addition, the “N (Amaranthus retroflexus) herbicidal effect grade” value with Amaranthus retroflexus was 5 (Herbicidal ratio of 90% or more (almost completely withered)). Further, the “L (Apera spica-venti.) herbicidal effect grade” value in the series with Apera spica-venti. is 3 (Herbicidal ratio of 40% or more and less than 70%). Besides, the “I (Avena fatua) herbicidal effect grade” value with Avena fatua is 2 (Herbicidal ratio of 20% or more and less than 40%). The “O (Chenopodium album) herbicidal effect grade” value with Chenopodium album is reported as 5 (Herbicidal ratio of 90% or more (almost completely withered)). Also, the “F (Digitaria ciliaris) herbicidal effect grade” value in the series on Digitaria ciliaris is recorded as 5 (Herbicidal ratio of 90% or more (almost completely withered)). Besides, the “H (Echinochloa crus-galli var. crus-galli) herbicidal effect grade” value in [2] is listed as 5 (Herbicidal ratio of 90% or more (almost completely withered)). For the same compound, the “Q (Galium spurium) herbicidal effect grade” value in the series on Galium spurium was 3 (Herbicidal ratio of 40% or more and less than 70%). Besides, in the series with Lolium multiflorum Lam., the “K (Lolium multiflorum Lam.) herbicidal effect grade” value was 1 (Herbicidal ratio of 5% or more and less than 20%). For the same compound, in the series with Setaria viridis, the “G (Setaria viridis) herbicidal effect grade” value is 4 (Herbicidal ratio of 70% or more and less than 90%). Further, in the series with Stellaria media, the “P (Stellaria media) herbicidal effect grade” value is reported as 5 (Herbicidal ratio of 90% or more (almost completely withered)). Besides, the “R (Veronica persica) herbicidal effect grade” value in the series with Veronica persica was 5 (Herbicidal ratio of 90% or more (almost completely withered)). Besides, the “f (Beta vulgaris ssp. vulgaris) effect on crop grade” value in series [3] is 5 (Herbicidal ratio of 90% or more (almost completely withered)). The “g (Brassica campestris L.) effect on crop grade” value with Brassica campestris L. was 5 (Herbicidal ratio of 90% or more (almost completely withered)). Besides, in the series with Glycine max, the “c (Glycine max) effect on crop grade” value is 3 (Herbicidal ratio of 40% or more and less than 70%). Besides, the “e (Triticum aestivum) effect on crop grade” value (from here on “e (Triticum aestivum) effect”) in the series on Triticum aestivum is 1 (Herbicidal ratio of 5% or more and less than 20%). For the same compound, the “b (Zea mays) effect on crop grade” value in the series with Zea mays is 4 (Herbicidal ratio of 70% or more and less than 90%). Also, in series [4], the “d (directly sowed Oryza sativa) effect on crop grade” value is 4 (Herbicidal ratio of 70% or more and less than 90%).
For the compound `CC(C)CSc1nnc2c(C(=O)Nc3nnnn3C)ccc(C(F)(F)F)n12` [2-071], the “E (herbicidal effect grade)” value in the series with Cyperus difformis is 5 (Herbicidal ratio of 90% or more (almost completely withered)). For the same compound, the “H (herbicidal effect grade)” value in series [1] is 4 (Herbicidal ratio of 70% or more and less than 90%). The “D (herbicidal effect grade)” value in the series on Leptochloa chinensis is recorded as 5 (Herbicidal ratio of 90% or more (almost completely withered)). Moreover, the “M (Abutilon theophrasti) herbicidal effect grade” value with Abutilon theophrasti was 4 (Herbicidal ratio of 70% or more and less than 90%). The “J (Alopecurus myosuroides) herbicidal effect grade” value in the series with Alopecurus myosuroides was 1 (Herbicidal ratio of 5% or more and less than 20%). Also, in the series with Amaranthus retroflexus, the “N (Amaranthus retroflexus) herbicidal effect grade” value was 5 (Herbicidal ratio of 90% or more (almost completely withered)). The “L (Apera spica-venti.) herbicidal effect grade” value in the series with Apera spica-venti. was 1 (Herbicidal ratio of 5% or more and less than 20%). Also, the “I (Avena fatua) herbicidal effect grade” value in the series on Avena fatua was 2 (Herbicidal ratio of 20% or more and less than 40%). Besides, in the series with Chenopodium album, the “O (Chenopodium album) herbicidal effect grade” value is reported as 5 (Herbicidal ratio of 90% or more (almost completely withered)). For the same compound, the “F (Digitaria ciliaris) herbicidal effect grade” value with Digitaria ciliaris is recorded as 5 (Herbicidal ratio of 90% or more (almost completely withered)). The “H (Echinochloa crus-galli var. crus-galli) herbicidal effect grade” value in series [2] was 5 (Herbicidal ratio of 90% or more (almost completely withered)). In the series on Galium spurium, the “Q (Galium spurium) herbicidal effect grade” value was 3 (Herbicidal ratio of 40% or more and less than 70%). The “K (Lolium multiflorum Lam.) herbicidal effect grade” value in the series on Lolium multiflorum Lam. is 1 (Herbicidal ratio of 5% or more and less than 20%). In addition, in the series on Setaria viridis, the “G (Setaria viridis) herbicidal effect grade” value was 4 (Herbicidal ratio of 70% or more and less than 90%). The “P (Stellaria media) herbicidal effect grade” value with Stellaria media was 5 (Herbicidal ratio of 90% or more (almost completely withered)). The “R (Veronica persica) herbicidal effect grade” value in the series on Veronica persica was 5 (Herbicidal ratio of 90% or more (almost completely withered)). The “f (Beta vulgaris ssp. vulgaris) effect on crop grade” value in series [3] is 5 (Herbicidal ratio of 90% or more (almost completely withered)). In addition, the “g (Brassica campestris L.) effect on crop grade” value with Brassica campestris L. is 4 (Herbicidal ratio of 70% or more and less than 90%). Also, the “c (Glycine max) effect on crop grade” value in the series on Glycine max was 2 (Herbicidal ratio of 20% or more and less than 40%). Also, in the series on Triticum aestivum, the “e (Triticum aestivum) effect” value is 1 (Herbicidal ratio of 5% or more and less than 20%). Also, the “b (Zea mays) effect on crop grade” value in the series on Zea mays was 1 (Herbicidal ratio of 5% or more and less than 20%). In addition, the “d (directly sowed Oryza sativa) effect on crop grade” value in [4] is 3 (Herbicidal ratio of 40% or more and less than 70%).
`CCC[S+]([O-])c1nnc2c(C(=O)Nc3nnnn3C)ccc(C(F)(F)F)n12` (stereo not drawn) [2-069]: the “E (herbicidal effect grade)” value in the series with Cyperus difformis was 5 (Herbicidal ratio of 90% or more (almost completely withered)). Besides, in series [1], the “H (herbicidal effect grade)” value was 5 (Herbicidal ratio of 90% or more (almost completely withered)). In addition, the “D (herbicidal effect grade)” value with Leptochloa chinensis is recorded as 5 (Herbicidal ratio of 90% or more (almost completely withered)). Besides, in the series with Abutilon theophrasti, the “M (Abutilon theophrasti) herbicidal effect grade” value was 5 (Herbicidal ratio of 90% or more (almost completely withered)). Further, the “J (Alopecurus myosuroides) herbicidal effect grade” value with Alopecurus myosuroides is 3 (Herbicidal ratio of 40% or more and less than 70%). Also, the “N (Amaranthus retroflexus) herbicidal effect grade” value in the series with Amaranthus retroflexus is 5 (Herbicidal ratio of 90% or more (almost completely withered)). For the same compound, the “L (Apera spica-venti.) herbicidal effect grade” value with Apera spica-venti. was 4 (Herbicidal ratio of 70% or more and less than 90%). Also, the “I (Avena fatua) herbicidal effect grade” value with Avena fatua is on record as 5 (Herbicidal ratio of 90% or more (almost completely withered)). Further, the “O (Chenopodium album) herbicidal effect grade” value in the series with Chenopodium album is 5 (Herbicidal ratio of 90% or more (almost completely withered)). In addition, the “F (Digitaria ciliaris) herbicidal effect grade” value with Digitaria ciliaris is on record as 5 (Herbicidal ratio of 90% or more (almost completely withered)). Besides, the “H (Echinochloa crus-galli var. crus-galli) herbicidal effect grade” value in series [2] was 5 (Herbicidal ratio of 90% or more (almost completely withered)). Moreover, the “Q (Galium spurium) herbicidal effect grade” value with Galium spurium is 4 (Herbicidal ratio of 70% or more and less than 90%). The “K (Lolium multiflorum Lam.) herbicidal effect grade” value with Lolium multiflorum Lam. was 3 (Herbicidal ratio of 40% or more and less than 70%). For the same compound, the “G (Setaria viridis) herbicidal effect grade” value with Setaria viridis is 5 (Herbicidal ratio of 90% or more (almost completely withered)). The “P (Stellaria media) herbicidal effect grade” value in the series on Stellaria media is reported as 5 (Herbicidal ratio of 90% or more (almost completely withered)). Further, in the series with Veronica persica, the “R (Veronica persica) herbicidal effect grade” value is listed as 5 (Herbicidal ratio of 90% or more (almost completely withered)). The “f (Beta vulgaris ssp. vulgaris) effect on crop grade” value in [3] was 5 (Herbicidal ratio of 90% or more (almost completely withered)). In addition, the “g (Brassica campestris L.) effect on crop grade” value in the series with Brassica campestris L. was 5 (Herbicidal ratio of 90% or more (almost completely withered)). Moreover, the “c (Glycine max) effect on crop grade” value with Glycine max is 4 (Herbicidal ratio of 70% or more and less than 90%). Further, in the series with Triticum aestivum, the “e (Triticum aestivum) effect” value is 3 (Herbicidal ratio of 40% or more and less than 70%). In the series on Zea mays, the “b (Zea mays) effect on crop grade” value was 5 (Herbicidal ratio of 90% or more (almost completely withered)). The “d (directly sowed Oryza sativa) effect on crop grade” value in series [4] was 4 (Herbicidal ratio of 70% or more and less than 90%).
